Measured values reported in US20110203018A1, “Use of Carboxamides on Cultivated Plants” (BASF SE, priority 2008, published 2011).

Legend:
soybeans = experiment: Field trial: soybean grain yield and thousand grain weight (TGW); assay type: in vivo; conditions: for Grain Yield (dt/ha) / TGW: soybeans, field, EC; for Grain Yield (dt/ha): Control 16.6; for TGW: Control 113.9
rice = experiment: Field trial: rice grain yield; assay type: in vivo
Procedure: Imidazolinone tolerant rice ([…]) was grown in 2008 at Washington, 7033 Highway 103, LA, USA. […] Row spacing was 18 cm. Plot size was 27.5 m^2. […] At maturity, the plants were harvested and the grain yield was measured (Tab. 3).

[1] = system: Asian Soybean Rust (Phakopsora pachyrhizi); experiment: Field trial: efficacy against Asian Soybean Rust in soybeans (infected leaf area); conditions: for Efficacy against soybean rust (%): soybeans, field, EC, assessed 20 days after last treatment, infection in Control 95% infected leaf area
Rhizoctonia solani = experiment: Field trial: efficacy against Rhizoctonia solani in rice (infected leaf area, frequency of infection); assay type: in vivo
Procedure: Imidazolinone tolerant rice ([…]) was grown in 2008 at Washington, 7033 Highway 103, LA, USA. […] Row spacing was 18 cm. Plot size was 27.5 m^2. […] Infection with Rhizoctonia solani 77 days after treatment with COMPOUND 2 was assessed (Tab. 3) by estimating the infected leaf area and frequency of infection in 10 randomly chosen plants per plot.

maize [2] = experiment: Field trial: maize grain yield and thousand grain weight (TGW); assay type: in vivo
Procedure: The variety DKB 390 was planted at a seeding rate of 60,000 plants per ha. Row spacing was 80 cm. Plot size was 30 m^2. […] At maturity, the plants were harvested and the grain yield and thousand grain weight (TGW) were measured (Tab. 2).

maize [3] = experiment: Field trial: green leaf retention in maize (green leaf area); assay type: in vivo
From the text: The variety DKB 390 was planted at a seeding rate of 60,000 plants per ha. Row spacing was 80 cm. Plot size was 30 m^2. […] Green leaf retention was estimated in treated and control plants by estimating the green leaf area 28 days after treatment in 10 randomly chosen plants per plot.

[4] = system: common rust (Puccinia sorghi); experiment: Field trial: efficacy against common rust in maize (infected leaf area); assay type: in vivo
From the text: The variety DKB 390 was planted at a seeding rate of 60,000 plants per ha. Row spacing was 80 cm. Plot size was 30 m^2.

Leptosphaeria maculans = experiment: Field trial: Leptosphaeria maculans in oilseed rape (stem scoring, disease index); assay type: in vivo
oilseed rape = experiment: Field trial: oilseed rape grain yield; assay type: in vivo
Procedure: Oilseed rape was grown in 2002 at the Verde in France. The variety Colosse was planted at a seeding rate of 3 kg/ha. Row spacing was 17 cm. Plot size was 30 m^2. […] The formulation was diluted in a total spray volume of 300 l/ha.
At maturity, the plants were harvested and the grain yield was measured (Tab. 4).

[5] = 30 g AI/ha applied twice (BBCH 55/61 and 65/71)
[6] = 50 g AI/ha applied twice (application time BBCH 19)
[7] = herbicide tolerant oilseed rape variety

Cn1cc(C(=O)Nc2ccccc2-c2cc(F)c(F)c(F)c2)c(C(F)F)n1 [COMPOUND 2, N-(3′,4′,5′-trifluorobiphenyl-2-yl)-3-difluoromethyl-1-methyl-1H-pyrazole-4-carboxamide]
grain weight of harvested grain versus the untreated (soybeans; soybean field trial): increased
grain yield compared to the untreated control (soybeans; soybean field trial): increase
Grain Yield (dt/ha) (soybeans; [5]): 21.6 dt/ha
TGW (soybeans; [5]): 143.5 g
Grain Yield (dt/ha) (soybeans; [6]): 22.9 dt/ha
TGW (soybeans; [6]): 144.1 g
grain yield, combination of treatment with transgenic variety (soybeans; transgenic soybean variety): synergistic effects
increase in grain yield and in grain weight versus expected from single effects (soybeans; transgenic soybean variety): much bigger
grain yield, combination of treatment with Imidazolinone tolerance trait (rice; CL 161 rice): synergistic effects
increase in grain yield compared with a conventional variety (rice; Clearfield variety (CL 161)): bigger
Grain Yield (dt/ha) (rice; Imidazolinone tolerant rice CL 161, field, 50 g/ha, EC, BBCH 32/34, Control 37.76): 54.28 dt/ha
grain yield compared to the untreated control (rice; rice field trial): increase
activity against Asian Soybean Rust ([1]; soybean field trial, EC 62.5 g/l, 0.48 l/ha and 0.8 l/ha, applied twice, 20 days after last treatment): good activity
Efficacy against soybean rust (%) [1, 5]: 34%
Efficacy against soybean rust (%) [1, 6]: 46%
activity against Asian Soybean Rust versus expected from single effects ([1]; transgenic glyphosate tolerant soybean variety): increased
disease control, combination of treatment with transgenic variety ([1]; transgenic soybean variety): synergistic effects
disease control, combination of treatment with Imidazolinone tolerance trait (Rhizoctonia solani; CL 161 rice): synergistic effects
Efficacy against Rhizctonia (%) Frequency (Rhizoctonia solani; Imidazolinone tolerant rice CL 161, field, 50 g/ha, EC, BBCH 32/34, 77 days after treatment): 45.6%
Efficacy against Rhizctonia (%) Infection (Rhizoctonia solani; Imidazolinone tolerant rice CL 161, field, 50 g/ha, EC, BBCH 32/34, 77 days after treatment, infection in Control 8% infected leaf area): 50%
activity against Rhizoctonia compared with a variety without the herbicide tolerance trait (Rhizoctonia solani; Imidazolinone tolerant rice variety (CL 161)): higher
activity against Rhizoctonia in rice (Rhizoctonia solani; rice field trial, EC 62.5 g/l, 0.8 l/ha, once, 77 days after treatment): active
Grain Yield (dt/ha) (maize [2]; maize DKB 390, field, 50 g/ha, EC, BBCH 51/55, Control 49.2): 55.2 dt/ha
TGW (maize [2]; maize DKB 390, field, 50 g/ha, EC, BBCH 51/55, Control 325): 333 g
grain weight of harvested grain over the untreated control (maize [2]; maize field trial): increased
grain yield compared to the untreated control (maize [2]; maize field trial): increase
grain yield, combination of treatment with transgenic variety (maize [2]; transgenic maize variety): synergistic effects
increase in grain yield and in grain weight versus expected from single effects (maize [2]; transgenic maize variety): much bigger
Green Leaf Area (%) (maize [3]; maize DKB 390, field, 50 g/ha, EC, BBCH 51/55, 28 days after treatment, Control 34): 40%
green leaf area compared to control plants (maize [3]; maize field trial, 28 days after treatment): increase
increase in green leaf tissue versus expected from combination of effects (maize [3]; transgenic maize plants): bigger
Efficacy against rust (%) ([4]; maize DKB 390, field, 50 g/ha, EC, BBCH 51/55, 28 days after treatment, infection in Control 8.8% infected leaf area): 88.6%
activity against common rust in maize ([4]; maize field trial, EC 62.5 g/l, 0.8 l/ha, once, 28 days after treatment): good activity
activity against common rust versus expected from single effects ([4]; transgenic glyphosate tolerant and/or insect resistant maize varieties): increased
disease control, combination of treatment with transgenic variety ([4]; transgenic maize variety): synergistic effects

O=C(Nc1ccccc1-c1ccc(Cl)cc1)c1cccnc1Cl [BOSCALID, boscalid]
activity against Leptosphaeria maculans versus expected from combination of effects (Leptosphaeria maculans; herbicide tolerant (imidazolinone resistance) oilseed rape variety): increased
disease control, combination of treatment with herbicide tolerant variety (Leptosphaeria maculans; [7]): synergistic effects
LEPTMA disease index (Leptosphaeria maculans; oilseed rape Colosse, field, 50 g/ha, WG (Cantus), BBCH 16, 209 days after treatment, Control 3.17, infection rate in Control 49%): 1.71
activity against Leptosphaeria maculans in oilseed rape (Leptosphaeria maculans; oilseed rape field trial, Cantus WG 500 g/kg, 0.5 kg/ha, once, 209 days after treatment): good activity
grain yield, combination of treatment with herbicide tolerant variety (oilseed rape; [7]): synergistic effects
increase in grain yield versus expected from single effects (oilseed rape; [7]): bigger
Grain Yield (dt/ha) (oilseed rape; oilseed rape Colosse, field, 50 g/ha, WG (Cantus), BBCH 16, Control 33.9): 49.3 dt/ha
grain yield compared to the untreated control (oilseed rape; oilseed rape field trial): increase
